These results are taken from patent publication US20100029615A1, “BENZIMIDAZOLE DERIVATIVES” (priority 2006, published 2010).

Counter-ions that a name gives are not always drawn. Like-named read-outs stand apart in the source and are kept apart here.

The target in this assay is T1, SMO (Mus musculus, UniProt P56726).
T1 construct: endogenous in cells; host or cells: C3H10T1/2 (ATCC #CCL-226)
The assay is described as follows: Smoothened (SMO)/Sonic Hedgehog (SHh) Transient Transcriptional Activation Assay (Gli-luciferase reporter in C3H10T1/2 cells). Type of assay: cell-based, murine. The following applies: SHh 250 ng/ml, 20 hrs. The protocol:
As noted above, the compounds of the invention are useful as inhibitors of SMO. Methods for determining the in vitro activity of these compounds are described below: Smoothened (SMO)/Sonic Hedgehog (SHh) Transient Transcriptional Activation Assay
On Day 1,2×10^6 C3H10T1/2 cells (ATCC #CCL-226) were split and seeded in 12 mls of growth medium Basal Medium Eagle (BME, Invitrogen #21010-046) supplemented with 2 mM L-glutamine (Invitrogen #25030-081), 0.1 units/ml penicillin and 0.1 ug/ml streptomycin (Invitrogen #15140-122), and 10% Fetal Bovine Serum (FBS, Invitrogen #16140-071) in a T-75 flask (Costar #3376). They were allowed to attach for 4 hours at 37° C., 5% CO2. The cells were then transfected using Fugene 6 (Roch #11 814 443 001) in the following reaction: 48 ul Fugene 6 and 745 ul Opti-MEM (Invitrogen #31985-070) were mixed and allowed to sit at room temperature for 5 minutes. 8 ug of pGL4.14/mGli(CS) DNA (10× murine Gli response elements and minimal CS promoter) and 0.5 ug of pEGFP DNA (Clontech) were added, gently mixed and incubated at room temperature for 20 minutes. This entire transfection mix was then added to the T-75 flask containing the cells. The cells were incubated at 37 °C, 5% C02 for 18-24 hrs.
On Day 2, the transfected cells were trypsinized and seeded into white 96 well plates (Costar #3917) in 100ul/well of growth medium at a concentration of 20,000 cells/well. The cells were allowed to recover for 4 hrs before adding serum starvation medium Dulbecco's Modified Eagle Medium (DMEM, Invitrogen #21063-029) supplemented with 2 mM L-glutamine, 0.1 units/ml penicillin and 0.1 ug/ml streptomycin, and 0.5% Calf Serum (CS, Invitrogen #26170-043). The growth media was aspirated off, and the cells were rinsed with 100 ul of starvation media. 95 ul of starvation media was then added to each well. The cells were incubated for 20 hrs at 37 °C, 5% C02.
On Day 3, cells were dosed with test compounds at a final concentration ranging from 2 uM to 2 nM. Immediately after dosing cells with compounds, recombinant human sonic hedgehog (SHh, R&D Systems #1845-SH) was add to a final concentration of 250 ng/ml. A 25 ug vial of SHh was reconstituted with 250 ul PBS/0.1% BSA to give a 100 ng/ul working stock. This working stock was then diluted 1:20 in starvation media. The transfected cells were incubated with compounds and SHh for 20 hrs at 37 °C, 5% C02.
Luciferase assays were conducted on Day 4 using Dual-Glo Luciferase assay system (Promega #E2940) according to Promega's protocol. Briefly, Dual-Glo luciferase reagent was made up and 100 uls were added to each well of the 96 well plate containing media. Plates were shaken at room temperature for 10 minutes, and then read on TopCount (Perkin-Elmer). The luminescence was recorded.

[1] abbreviates: C3H 10T1/2, 2 μM test compound, read-out: SMO CELL % INHIBITION @ 2 μM.

T1 sequence (P56726 33-793): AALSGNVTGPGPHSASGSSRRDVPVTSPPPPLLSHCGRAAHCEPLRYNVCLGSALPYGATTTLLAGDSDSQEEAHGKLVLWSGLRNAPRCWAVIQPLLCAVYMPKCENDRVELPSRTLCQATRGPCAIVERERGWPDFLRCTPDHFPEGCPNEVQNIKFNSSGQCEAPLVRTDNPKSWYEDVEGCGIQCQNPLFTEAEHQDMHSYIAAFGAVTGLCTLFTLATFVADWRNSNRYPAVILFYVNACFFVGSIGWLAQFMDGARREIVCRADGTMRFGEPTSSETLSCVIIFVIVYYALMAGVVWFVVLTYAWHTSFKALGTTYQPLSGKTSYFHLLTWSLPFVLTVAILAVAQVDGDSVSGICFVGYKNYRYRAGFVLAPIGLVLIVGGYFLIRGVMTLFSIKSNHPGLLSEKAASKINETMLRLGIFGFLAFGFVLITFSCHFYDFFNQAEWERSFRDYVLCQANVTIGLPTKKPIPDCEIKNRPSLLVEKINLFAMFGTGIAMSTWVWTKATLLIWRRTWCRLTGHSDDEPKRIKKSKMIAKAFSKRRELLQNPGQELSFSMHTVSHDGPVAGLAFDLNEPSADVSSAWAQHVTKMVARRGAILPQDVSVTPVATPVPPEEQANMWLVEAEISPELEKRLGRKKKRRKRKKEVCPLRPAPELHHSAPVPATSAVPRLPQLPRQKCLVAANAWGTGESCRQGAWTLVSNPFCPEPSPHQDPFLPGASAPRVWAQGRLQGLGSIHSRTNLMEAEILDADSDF

With `O=C(N[C@@H]1CCC[C@H](c2nc3ccccc3[nH]2)C1)c1cccc2ccccc12` [Example 188, N-[(1R,3S)-3-(1H-benzimidazol-2-yl)cyclohexyl]-1-naphthamide triflouroacetate], the inhibition at 2 µM under setting [1] turned out to be 64%. Same read-out and setting: under `O=C(NC12CCCC(c3nc4ccccc4[nH]3)(C1)C2)c1ccc2c(c1)OCCO2` [Example 87, N-[5-(1H-benzimidazol-2-yl)bicyclo[3.1.1]hept-1-yl]-2,3-dihydro-1,4-benzodioxine-6-carboxamide] stands 91%; under `COc1cc(OC)cc(C(=O)N[C@@H]2CCC[C@H](c3nc4cc(Cl)ccc4[nH]3)C2)c1` [Example 298, N-[(1R,3S)-3-(5-chloro-1H-benzimidazol-2-yl)cyclohexyl]-3,5-dimethoxybenz-amide (+)-tartrate], 104%. `CN(C)Cc1ccc2nc([C@H]3CCC[C@@H](NC(=O)c4ccc5c(c4)OCCO5)C3)[nH]c2c1` [Example 44, N-((1R,3S)-3-(5-((Dimethylamino)methyl)-1H-benzo[d]imidazol-2-yl)cyclohexyl)-2,3-dihydrobenzo[b][1,4]dioxine-6-carboxamide]: the inhibition at 2 µM (C3H 10T1/2, 2 uM test compound, read-out: SMO % inhibition at 2 uM) was 107%. For the molecule `O=C(N[C@@H]1CCC[C@H](c2nc3ccccc3[nH]2)C1)c1cc2ccc(Cl)cc2[nH]1` [Example 210, N-[(1R,3S)-3-(1H-benzimidazol-2-yl)cyclohexyl]-6-chloro-1H-indole-2-carboxamide triflouroacetate], under setting [1], the inhibition at 2 µM amounted to 88%. Same read-out and setting: under `N#Cc1ccc2nc([C@H]3CCC[C@@H](NC(=O)c4ccc5c(c4)OCCO5)C3)[nH]c2c1` [Example 172, N-[(1R,3S)-3-(6-cyano-1H-benzimidazol-2-yl)cyclohexyl]-2,3-dihydro-1,4-benzodioxine-6-carboxamide HCl] stands 90%. Same read-out and setting: the same measure for `Cc1n[nH]c(C)c1/C=C/C(=O)NC1CCCC(c2nc3ccccc3[nH]2)C1` (centres unmarked) [Example 136, (2E)-N-[3-(1H-benzimidazol-2-yl)cyclohexyl]-3-(3,5-dimethyl-1H-pyrazol-4-yl)acrylamide triflouroacetate]: 86%; for `O=C(Cc1cn2cc(Cl)ccc2n1)NC1CCCC(c2nc3ccccc3[nH]2)C1` (centres unmarked) [Example 107, N-[3-(1H-benzimidazol-2-yl)cyclohexyl]-2-(6-chloroimidazo[1,2-a]pyridin-2-yl)acetamide triflouroacetate]: 79%. The same measure, in the same setting: the same measure for `Cn1c(=O)[nH]c2cc(C(=O)N[C@@H]3CCC[C@H](c4nc5ccccc5[nH]4)C3)ccc21` [Example 217, N-[(1R,3S)-3-(1H-benzimidazol-2-yl)cyclohexyl]-1-methyl-2-oxo-2,3-dihydro-1H-benzimidazole-5-carboxamide triflouroacetate]: 85%; for `O=C(N[C@@H]1CCC[C@H](c2nc3cc(Br)ccc3[nH]2)C1)c1ccc2c(c1)OCCO2` [Example 149, N-[(1R,3S)-3-(5-bromo-1H-benzimidazol-2-yl)cyclohexyl]-2,3-dihydro-1,4-benzodioxine-6-carboxamide HCl]: 103%; for `CN(C)CCNc1ccc(C(=O)N[C@@H]2CCC[C@H](c3nc4cc(C(F)(F)F)ccc4[nH]3)C2)cn1` [Example 293, 6-{[2-(dimethylamino)ethyl]amino}-N-{(1R,3S)-3-[5-(trifluoromethyl)-1H-benzimidazol-2-yl]cyclohexyl}-nicotinamide HCl]: 106%.

`O=C(Cc1nc2cc(Cl)ccc2[nH]1)NC1CCCC(c2nc3ccccc3[nH]2)C1` (centres unmarked) [Example 144, N-[3-(1H-benzimidazol-2-yl)cyclohexyl]-2-(5-chloro-1H-benzimidazol-2-yl)acetamide HCl]: the inhibition at 2 µM under setting [1] came to 105%. On the same count and under the same terms, under `COCCn1c([C@H]2CCC[C@@H](NC(=O)c3ccc4c(c3)OCCO4)C2)nc2ccccc21` [Example 76, N-{(1R,3S)-3-[1-(2-methoxyethyl)-1H-benzimidazol-2-yl]cyclohexyl}-2,3-dihydro-1,4-benzodioxine-6-carboxamide] stands 101%.

For the molecule “N-(3-(6-(Cyanomethyl)-1-methyl-1H-benzo[d]imidazol-2-yl)cyclohexyl)-2,3-dihydrobenzo[b][1,4]dioxine-6-carboxamide and N-(3-(5-(Cyanomethyl)-1-methyl-1H-benzo[d]imidazol-2-yl)cyclohexyl)-2,3-dihydrobenzo[b][1,4]dioxine-6-carboxamide [Example 35]”, the “SMO % inhibition at 2 uM” value (2 uM test compound) is on record as 106%. Consider `O=C(NC1CCCC(c2nc3ccc(Br)cc3[nH]2)C1)c1ccc2c(c1)OCCO2` (centres unmarked) [Example 86, N-[3-(6-bromo-1H-benzimidazol-2-yl)cyclohexyl]-2,3-dihydro-1,4-benzodioxine-6-carboxamide HCl], for which the inhibition at 2 µM under setting [1] was found to be 102%. Same read-out and setting: the same measure for `CC(=O)c1ccc(OCC(=O)NC2CCCC(c3nc4ccccc4[nH]3)C2)cc1` (centres unmarked) [Example 157, 2-(4-acetylphenoxy)-N-[3-(1H-benzimidazol-2-yl)cyclohexyl] acetamide triflouroacetate]: 52%; for `CN1C(=O)CCc2cc(C(=O)N[C@@H]3CCC[C@H](c4nc5cc(Cl)ccc5[nH]4)C3)ccc21` [Example 305, N-[(1R,3S)-3-(5-chloro-1H-benzimidazol-2-yl)cyclohexyl]-1-methyl-2-oxo-1,2,3,4-tetrahydroquino-line-6-carboxamide (+)-tartrate]: 81.2%; for `O=C(N[C@@H]1CCC[C@H](c2nc3ccccc3[nH]2)C1)c1cc2c(cn1)OCCO2` [Example 253, N-((1R,3S)-3-(1H-benzo[d]imidaz-ol-2-yl)cyclohexyl)-2,3-dihydro-[1,4]dioxino[2,3-c]pyridine-7-carboxamide]: 100%.

For the molecule `Cn1ccnc1-c1ccc(C(=O)NC2CCCC(c3nc4ccccc4[nH]3)C2)cc1` (centres unmarked) [Example 159, N-[3-(1H-benzimidazol-2-yl)cyclohexyl]-4-(1-methyl-1H-imidazol-2-yl)benzamide triflouroacetate], the inhibition at 2 µM under setting [1] came out at 78%. In the case of `Cc1ccoc1C(=O)NC1CCCC(c2nc3ccccc3[nH]2)C1` (centres unmarked) [Example 93, N-[3-(1H-benzimidazol-2-yl)cyclohexyl]-3-methyl-2-furamide triflouroacetate], under setting [1], the inhibition at 2 µM is 24%.

`[N-]=[N+]=Nc1ccc(C(=O)NC23CCCC(c4nc5ccccc5[nH]4)(C2)C3)cc1` [Example 277, 4-azido-N-[5-(1H-benzimidazol-2-yl)bicyclo[3.1.1]hept-1-yl]benzamide]: under setting [1], the inhibition at 2 µM stood at 82.3%. Same read-out and setting: under `O=C(N[C@H]1CCC[C@@H](c2nc3cc(C(F)(F)F)ccc3[nH]2)C1)c1ccc2c(c1)OCCO2` [Example 152, N-{(1S,3R)-3-[5-(trifluoromethyl)-1H-benzimidazol-2-yl]cyclohexyl}-2,3-dihydro-1,4-benzodioxine-6-carboxamide HCl] stands 80%. On the same count and under the same terms, the same measure for `O=C(N[C@@H]1CCC[C@H](c2nc3ccccc3[nH]2)C1)c1ccc2c(c1)OCCO2` [Example 63, N-[(1R,3S)-3-(1H-benzimidazol-2-yl)cyclohexyl]-2,3-dihydro-1,4-benzodioxine-6-carboxamide HCl]: 108%; for `O=C1CCc2cc(C(=O)N[C@@H]3CCC[C@H](c4nc5cc(C(F)(F)F)ccc5[nH]4)C3)ccc2N1` [Example 285, 2-oxo-N-{(1R,3S)-3-[5-(trifluoromethyl)-1H-benzimidazol-2-yl]cyclohexyl}-1,2,3,4-tetrahydroquino-line-6-carboxamide HCl]: 111%. The same measure, in the same setting: the same measure for `O=C(NC1CCCC(c2nc3ccccc3[nH]2)C1)c1ccc2[nH]cnc2c1` (centres unmarked) [Example 60, N-[3-(1H-benzimidazol-2-yl)cyclohexyl]-1H-benzimidazole-5-carboxamide HCl]: 87%. On to `COc1cc(OC)cc(C(=O)NC23CCCC(c4nc5ccccc5n4C)(C2)C3)c1` [Example 245, 3,5-dimethoxy-N-(5-(1-methyl-1H-benzo[d]imidaz-ol-2-yl)bicyclo[3.1.1]heptan-1-yl)benzamide], for which the inhibition at 2 µM under setting [1] was found to be 49%.
